Measured values as given in US10752884B2, “Method of inducing beta cells from urine-derived cells using small molecules” (UNIVERSITY OF SOUTH AUSTRALIA, priority 2014, dated 2020).

Legend:
ALK4 = settings: cited from earlier work
ALK1 = ALK1 (Homo sapiens, UniProt P37023); settings: cited from earlier work
ALK2 = molecular target: T1, ALK2 (Homo sapiens, UniProt Q04771); settings: cited from earlier work
T1 sequence (Q04771 21-509): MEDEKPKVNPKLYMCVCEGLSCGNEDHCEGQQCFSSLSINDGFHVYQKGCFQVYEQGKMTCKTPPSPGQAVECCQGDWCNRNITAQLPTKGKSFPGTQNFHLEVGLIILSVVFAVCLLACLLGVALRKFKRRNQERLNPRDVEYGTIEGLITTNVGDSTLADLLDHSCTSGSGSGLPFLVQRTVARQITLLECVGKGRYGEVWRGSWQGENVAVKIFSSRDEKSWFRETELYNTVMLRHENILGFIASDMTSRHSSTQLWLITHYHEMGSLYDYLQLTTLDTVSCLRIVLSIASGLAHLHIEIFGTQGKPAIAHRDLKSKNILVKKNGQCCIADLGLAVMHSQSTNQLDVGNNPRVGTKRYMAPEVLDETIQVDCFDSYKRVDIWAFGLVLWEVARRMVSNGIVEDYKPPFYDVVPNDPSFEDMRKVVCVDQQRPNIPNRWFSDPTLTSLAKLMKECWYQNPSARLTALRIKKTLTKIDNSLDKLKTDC

ALK3 = ALK3 (Homo sapiens, UniProt P36894); settings: cited from earlier work
Chain of ALK3 (P36894 24-532): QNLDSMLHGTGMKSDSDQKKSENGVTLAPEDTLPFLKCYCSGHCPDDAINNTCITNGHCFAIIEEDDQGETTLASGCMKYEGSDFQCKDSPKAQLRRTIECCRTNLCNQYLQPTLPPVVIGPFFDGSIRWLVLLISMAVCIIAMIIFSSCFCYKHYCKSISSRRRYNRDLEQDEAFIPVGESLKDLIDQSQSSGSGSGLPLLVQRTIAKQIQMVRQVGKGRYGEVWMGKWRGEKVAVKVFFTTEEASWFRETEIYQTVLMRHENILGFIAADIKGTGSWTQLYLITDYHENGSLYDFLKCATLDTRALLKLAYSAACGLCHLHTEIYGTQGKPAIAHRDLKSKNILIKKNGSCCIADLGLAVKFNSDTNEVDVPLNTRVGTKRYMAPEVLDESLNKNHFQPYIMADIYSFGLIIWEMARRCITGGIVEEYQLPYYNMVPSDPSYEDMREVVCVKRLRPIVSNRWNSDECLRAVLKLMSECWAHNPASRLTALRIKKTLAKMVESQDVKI

ALK6 = ALK6 (Homo sapiens, UniProt O00238); settings: cited from earlier work
Chain of ALK6 (O00238 14-502): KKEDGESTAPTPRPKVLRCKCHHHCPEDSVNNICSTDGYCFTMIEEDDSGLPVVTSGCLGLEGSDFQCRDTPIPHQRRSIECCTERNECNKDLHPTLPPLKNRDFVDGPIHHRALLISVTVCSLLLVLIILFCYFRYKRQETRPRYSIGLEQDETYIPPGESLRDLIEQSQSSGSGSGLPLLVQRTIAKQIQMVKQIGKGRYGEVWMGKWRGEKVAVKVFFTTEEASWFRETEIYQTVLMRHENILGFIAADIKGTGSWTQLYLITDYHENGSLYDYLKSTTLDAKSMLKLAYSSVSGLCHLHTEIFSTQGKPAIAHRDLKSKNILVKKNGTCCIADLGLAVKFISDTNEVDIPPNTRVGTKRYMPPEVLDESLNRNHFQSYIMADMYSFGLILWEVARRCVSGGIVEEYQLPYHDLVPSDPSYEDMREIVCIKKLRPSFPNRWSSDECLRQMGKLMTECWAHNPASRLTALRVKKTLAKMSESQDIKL

TGF-β-induced EMT = settings: via the inhibition of Smad2 phosphorylation; cited from earlier work
human urine cells (HUC) = experiment: Secondary induction, cell morphology by phase contrast microscopy; assay type: cell-based; settings: after Example 2 primary induction; 330 nm Indolactam V, four days
Method: HUC-M-35 P5 cells were prepared using the primary induction protocol described in Example 2. The cells were then cultured in a secondary induction medium containing DMEM, […] Indolactam V, 1×2 mM L-glutamine (Life Technologies, Cat No. 25030-081), and 1×B27 (Life Technologies, Cat No. 17504044) and p/s as detailed above for four days. The morphology of the resultant cells was examined by phase contrast microscopy.
HUC-M-35 P5 cells were induced using the primary induction protocol described in Example 2. […] The morphology of the resultant cells was assessed by phase contrast microscopy.

Chain of ALK1 (P37023 22-503, species assumed): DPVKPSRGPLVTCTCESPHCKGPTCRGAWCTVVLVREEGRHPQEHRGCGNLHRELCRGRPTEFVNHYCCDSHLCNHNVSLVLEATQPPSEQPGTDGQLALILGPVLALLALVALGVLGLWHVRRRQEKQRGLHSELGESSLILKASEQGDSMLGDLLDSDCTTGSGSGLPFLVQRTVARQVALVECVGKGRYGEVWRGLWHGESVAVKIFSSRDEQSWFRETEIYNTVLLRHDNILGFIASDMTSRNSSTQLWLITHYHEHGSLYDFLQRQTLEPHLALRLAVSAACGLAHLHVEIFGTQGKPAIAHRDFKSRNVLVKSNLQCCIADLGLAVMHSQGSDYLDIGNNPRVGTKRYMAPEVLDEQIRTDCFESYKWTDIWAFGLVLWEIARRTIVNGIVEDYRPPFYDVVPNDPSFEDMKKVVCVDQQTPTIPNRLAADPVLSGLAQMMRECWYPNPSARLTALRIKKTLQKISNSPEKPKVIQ

## Cc1cccc(-c2nn(C(=S)Nc3ccccc3)cc2-c2ccnc3ccccc23)n1 [A83-01, 3-(6-Methyl-2-pyridinyl)-N-phenyl-4-(4-quinolinyl)-1H-pyrazole-1-carbothioamide]
ALK4
  IC50: 0.012 µM
ALK1
  inhibition of ALK1: weakly inhibits
ALK2
  inhibition of ALK2: weakly inhibits
ALK3
  inhibition of ALK3: weakly inhibits
ALK6
  inhibition of ALK6: weakly inhibits
TGF-β-induced EMT
  inhibition of TGF-β-induced EMT: inhibit

## CC(C)[C@H]1C(=O)N[C@H](CO)Cc2c[nH]c3cccc(c23)N1C [Indolactam V, (2S,5S)-1,2,4,5,6,8-Hexahydro-5-(hydroxymethyl)-1-methyl-2-(1-methylethyl)-3H-pyrrolo[4,3,2-gh]-1,4-benzodiazonin-3-one]
Human urine cells (HUC)
  cell morphology following secondary induction: some cells appeared to have an islet cell morphology
